From PubChem BioAssay AID1259407 (Chemical Carcinogenesis Research Information System (CCRIS), 2018)
The source made the active and inactive calls. The rule behind the calls is not given here.

Tested on: CCRIS mutagenicity, Ames/micronucleus/aberration tests
Experiment: CCRIS mutagenicity studies
[1] = Test System: AMES SALMONELLA TYPHIMURIUM, Strain/Indicator: TA100, Metabolic Activation: NONE, Method: STANDARD PLATE
[2] = Test System: AMES SALMONELLA TYPHIMURIUM, Strain/Indicator: TA98, Metabolic Activation: NONE, Method: PREINCUBATION
[3] = Test System: AMES SALMONELLA TYPHIMURIUM, Strain/Indicator: TA98, Metabolic Activation: NONE, Method: STANDARD PLATE
[4] = Test System: AMES SALMONELLA TYPHIMURIUM, Strain/Indicator: TA98, Metabolic Activation: RAT, LIVER, S-9, AROCLOR 1254, Method: STANDARD PLATE
[5] = Test System: AMES SALMONELLA TYPHIMURIUM, Strain/Indicator: TA100, Metabolic Activation: NONE, Method: PREINCUBATION
[6] = Test System: AMES SALMONELLA TYPHIMURIUM, Strain/Indicator: TA100, Metabolic Activation: RAT, LIVER, S-9, AROCLOR 1254, Method: STANDARD PLATE
[7] = Test System: AMES SALMONELLA TYPHIMURIUM, Strain/Indicator: TA98, Metabolic Activation: RAT, LIVER, S-9, AROCLOR 1254, Method: PREINCUBATION
[8] = Test System: AMES SALMONELLA TYPHIMURIUM, Strain/Indicator: TA100, Metabolic Activation: RAT, LIVER, S-9, AROCLOR 1254, Method: PREINCUBATION

With c1ccc([C@H]2CO2)cc1 the mutagenic call (Test System: AMES SALMONELLA TYPHIMURIUM, Strain/Indicator: TA100, Metabolic Activation: NONE) was “active; positive” and the mutagenic call [1] was “active; positive”.
With Cc1cc(N=Nc2ccccc2C)ccc1N the mutagenic call (Test System: AMES SALMONELLA TYPHIMURIUM, Strain/Indicator: TA98, Metabolic Activation: HAMSTER, LIVER, S-9, AROCLOR 1254, Method: STANDARD PLATE) was “active; positive”, the mutagenic call (Test System: AMES SALMONELLA TYPHIMURIUM, Strain/Indicator: TA98, Metabolic Activation: HAMSTER, LIVER, S-9, Method: PREINCUBATION (PRIVAL METHOD)) was “active; positive” and the mutagenic call [2] was “inactive; negative”. For the same molecule, the mutagenic call [3] was “inactive; negative”, the mutagenic call (Test System: AMES SALMONELLA TYPHIMURIUM, Strain/Indicator: TA98, Metabolic Activation: RAT LIVER S-9, Method: PREINCUBATION) was “active; positive” and the mutagenic call (Test System: AMES SALMONELLA TYPHIMURIUM, Strain/Indicator: TA98, Metabolic Activation: RAT LIVER, CYTOSOL, AROCLOR 1254, Method: PREINCUBATION) was “inactive; negative”. For the same molecule, the mutagenic call (Test System: AMES SALMONELLA TYPHIMURIUM, Strain/Indicator: TA98, Metabolic Activation: RAT LIVER, MICROSOMES, AROCLOR 1254, Method: PREINCUBATION) was “active; positive”, the mutagenic call (Test System: AMES SALMONELLA TYPHIMURIUM, Strain/Indicator: TA98, Metabolic Activation: RAT, LIVER, MICROSOMES, AROCLOR 1254, Method: PREINCUBATION) was “active; positive” and the mutagenic call (Test System: AMES SALMONELLA TYPHIMURIUM, Strain/Indicator: TA98, Metabolic Activation: RAT, LIVER, MICROSOMES, O-AMINOAZOTOLUENE, Method: PREINCUBATION) was “inactive; negative”. The mutagenic call (Test System: AMES SALMONELLA TYPHIMURIUM, Strain/Indicator: TA98, Metabolic Activation: RAT, LIVER, MICROSOMES, Method: PREINCUBATION) was “inactive; negative”, the mutagenic call (Test System: AMES SALMONELLA TYPHIMURIUM, Strain/Indicator: TA98, Metabolic Activation: RAT, LIVER, S-9, AROCLOR 1254, HAMSTER, LIVER, S-9, AROCLOR 1254, Method: STANDARD PLATE) was “active; positive” and the mutagenic call [4] was “active; positive”. For the same molecule, the mutagenic call (Test System: AMES SALMONELLA TYPHIMURIUM, Strain/Indicator: TA98, Metabolic Activation: RAT, LIVER, S-9, KC500 OR PHENOBARBITAL, Method: LIQUID SUSPENSION) was “active; positive”, the mutagenic call (Test System: AMES SALMONELLA TYPHIMURIUM, Strain/Indicator: TA98, Metabolic Activation: RAT, LIVER, S-9, PCB, Method: PREINCUBATION) was “active; positive” and the mutagenic call (Test System: AMES SALMONELLA TYPHIMURIUM, Strain/Indicator: TA98, Metabolic Activation: RAT, LIVER, S-9, POLYCHLORINATED BIPHENYLS, Method: PREINCUBATION) was “active; positive”. The mutagenic call (Test System: AMES SALMONELLA TYPHIMURIUM, Strain/Indicator: TA100, Metabolic Activation: HAMSTER, LIVER, S-9, AROCLOR 1254, Method: STANDARD PLATE) was “active; positive”, the mutagenic call (Test System: AMES SALMONELLA TYPHIMURIUM, Strain/Indicator: TA100, Metabolic Activation: HAMSTER, LIVER, S-9, Method: PREINCUBATION (PRIVAL METHOD)) was “active; positive” and the mutagenic call [5] was “inactive; negative”. For the same molecule, the mutagenic call [1] was “inactive; negative”, the mutagenic call (Test System: AMES SALMONELLA TYPHIMURIUM, Strain/Indicator: TA100, Metabolic Activation: RAT LIVER S-9, Method: PREINCUBATION) was “active; positive” and the mutagenic call (Test System: AMES SALMONELLA TYPHIMURIUM, Strain/Indicator: TA100, Metabolic Activation: RAT, LIVER, S-9, AROCLOR 1254, HAMSTER, LIVER, S-9, AROCLOR 1254, Method: STANDARD PLATE) was “active; positive”. The mutagenic call [6] was “active; positive”, the mutagenic call (Test System: AMES SALMONELLA TYPHIMURIUM, Strain/Indicator: TA100, Metabolic Activation: RAT, LIVER, S-9, KC500 OR PHENOBARBITAL, Method: LIQUID SUSPENSION) was “active; positive” and the mutagenic call (Test System: AMES SALMONELLA TYPHIMURIUM, Strain/Indicator: TA100, Metabolic Activation: RAT, LIVER, S-9, PCB, Method: PREINCUBATION) was “active; positive”. The mutagenic call (Test System: AMES SALMONELLA TYPHIMURIUM, Strain/Indicator: TA100, Metabolic Activation: RAT, LIVER, S-9, POLYCHLORINATED BIPHENYLS, Method: PREINCUBATION) was “active; positive”, the mutagenic call (Test System: AMES SALMONELLA TYPHIMURIUM, Strain/Indicator: TA1538, Metabolic Activation: NONE, Method: STANDARD PLATE) was “inactive; negative” and the mutagenic call (Test System: AMES SALMONELLA TYPHIMURIUM, Strain/Indicator: TA1538, Metabolic Activation: RAT, LIVER, S-9, AROCLOR 1254, HAMSTER, LIVER, S-9, AROCLOR 1254, Method: STANDARD PLATE) was “active; positive”. The mutagenic call (Test System: AMES SALMONELLA TYPHIMURIUM, Strain/Indicator: TA1538, Metabolic Activation: RAT, LIVER, S-9, AROCLOR 1254, Method: STANDARD PLATE) was “active; positive”, the mutagenic call (Test System: MOUSE LYMPHOMA, Strain/Indicator: L5178Y (TK+/TK-), Metabolic Activation: RAT, LIVER, S-9, AROCLOR 1254, Method: SUSPENSION/PLATE) was “active; positive. reevaluation of results: positive” and the mutagenic call (Test System: Mouse lymphoma, Strain/Indicator: L5178Y (tk+/tk-), Metabolic Activation: None, Method: Suspension/plate) was “inactive; negative”.
O=S(=O)(O)OCc1c2ccccc2cc2c1ccc1ccccc12 was tested, and the mutagenic call [2] was “active; positive”.
With O=C(Nc1snc2ccccc12)c1ccccc1 the mutagenic call [1] was “inactive; negative”, the mutagenic call (Test System: AMES SALMONELLA TYPHIMURIUM, Strain/Indicator: TA100, Metabolic Activation: S-9, Method: STANDARD PLATE) was “active; positive” and the mutagenic call (Test System: AMES SALMONELLA TYPHIMURIUM, Strain/Indicator: TA1537, Metabolic Activation: NONE, Method: STANDARD PLATE) was “inactive; negative”. For the same molecule, the mutagenic call (Test System: AMES SALMONELLA TYPHIMURIUM, Strain/Indicator: TA1537, Metabolic Activation: S-9, Method: STANDARD PLATE) was “inactive; negative”.
For O=C(/C=C/c1ccccc1)c1ccc(O)cc1, the mutagenic call [3] was “inactive; negative”, the mutagenic call [4] was “inactive; negative” and the mutagenic call [1] was “inactive; negative”. For the same molecule, the mutagenic call [6] was “inactive; negative”.
For OC1C=C2c3ccc4ccccc4c3-c3cccc(c32)C1O (stereo unspecified), the mutagenic call (Test System: AMES SALMONELLA TYPHIMURIUM, Strain/Indicator: TA97A, Metabolic Activation: NONE, Method: PREINCUBATION) was “inactive; negative”, the mutagenic call (Test System: AMES SALMONELLA TYPHIMURIUM, Strain/Indicator: TA97A, Metabolic Activation: RAT, LIVER, S-9, AROCLOR 1254, Method: PREINCUBATION) was “active; positive” and the mutagenic call [2] was “inactive; negative”. The mutagenic call [7] was “active; positive”, the mutagenic call [5] was “active; positive” and the mutagenic call [8] was “active; positive”.
O=[N+]([O-])c1ccc2ccc3c4c(cc5ccc1c2c53)CCC=C4 was tested, and the mutagenic call (Test System: AMES SALMONELLA TYPHIMURIUM, Strain/Indicator: TA98(1,8-DNP6), Metabolic Activation: NONE, Method: STANDARD PLATE) was “active; positive”, the mutagenic call (Test System: AMES SALMONELLA TYPHIMURIUM, Strain/Indicator: TA98(1,8-DNP6), Metabolic Activation: RAT, LIVER, S-9, AROCLOR 1254, Method: STANDARD PLATE) was “active; positive” and the mutagenic call (Test System: AMES SALMONELLA TYPHIMURIUM, Strain/Indicator: TA98(NR), Metabolic Activation: NONE, Method: STANDARD PLATE) was “active; positive”. The mutagenic call (Test System: AMES SALMONELLA TYPHIMURIUM, Strain/Indicator: TA98(NR), Metabolic Activation: RAT, LIVER, S-9, AROCLOR 1254, Method: STANDARD PLATE) was “active; positive”, the mutagenic call [3] was “active; positive” and the mutagenic call [4] was “active; positive”. For the same molecule, the mutagenic call [1] was “inactive; negative” and the mutagenic call [6] was “active; positive”.
In the case of CCOc1cccc2cccnc12, the mutagenic call (Test System: AMES SALMONELLA TYPHIMURIUM, Strain/Indicator: TA100, Metabolic Activation: S-9, Method: PREINCUBATION) is reported as “inactive; negative”.
Cc1cncc(C)n1 was tested, and the mutagenic call [2] was “inactive; negative”, the mutagenic call [3] was “active; positive” and the mutagenic call [7] was “inactive; negative”. For the same molecule, the mutagenic call [4] was “inactive; negative”, the mutagenic call [5] was “inactive; negative” and the mutagenic call [1] was “inactive; negative”. The mutagenic call [8] was “inactive; negative”, the mutagenic call [6] was “inactive; negative” and the mutagenic call (Test System: AMES SALMONELLA TYPHIMURIUM, Strain/Indicator: TA102, Metabolic Activation: NONE, Method: PREINCUBATION) was “inactive; negative”. For the same molecule, the mutagenic call (Test System: AMES SALMONELLA TYPHIMURIUM, Strain/Indicator: TA102, Metabolic Activation: RAT, LIVER, S-9, AROCLOR 1254, Method: PREINCUBATION) was “inactive; negative”.
